Test results: patent publication US5859019A, “Methods for protecting against cardiac ischemia by administering adenosine A2a receptor antagonists” (priority 1997, dated 1999)

Key:
[1] = tested on: rat brain A1 and A2 receptors; conditions: rat brain adenosine receptors, radioligand binding; cited from earlier work
[2] = tested on: ventricular cells cultured from chick embryos; test: 45Ca uptake in cultured ventricular cells; format: cell-based
Description: Determination of ^45 Ca uptake was made according to a modification of previously described method (20). Cultures were incubated with L-(3, 4, 5-^3 H, N)-leucine (152.2 Ci/mmol) for a 24 hour prior to ^45 Ca uptake. [^3 H] leucine incorporated into the cellular protein allowed normalization of ^45 Ca content to mg cell protein. After incubation with ^45 Ca-containing medium, cells were then washed free of ^45 Ca and solubilized for 2 hours with 1% sodium dodecyl sulfate and 10 mM sodium borate and the levels of ^3 H and ^45 Ca were determined. For all data comparing the effect of different agents on ^45 Ca uptake, one-way ANOVA analysis followed by group comparison with t-test was carried out at each time point of the ^45 Ca uptake. Cyclic AMP level was determined according to a previously described radioimmunoassay (27).

[3] = tested on: ventricular cells cultured from chick embryos; test: Hypoxia-induced injury / preconditioning of cultured ventricular cells (% cells killed, CK released); format: cell-based; conditions: for Ability to replace preconditioning hypoxia (protection against injury by ninety-minute hypoxia; % cells killed, CK released): agent given for 5 min in place of preconditioning hypoxia, before 90-min hypoxia, adenosine 10 μM, R-PIA 10 μM; for Ability to replace preconditioning hypoxia (protection against injury by ninety-minute hypoxia; % cells killed, CK released) / Effect on protection by preconditioning hypoxia (% cells killed, CK released): CGS21680 1 μM; for Effect on protection by preconditioning hypoxia (% cells killed, CK released): agent present during five-minute preconditioning hypoxia, CSC 1 μM, 8-SPT 100 μM, isoproterenol 0.3 μM, forskolin 1 μM, BayK 8644 0.1 μM; for EC (maximal effect): Gallus gallus, agonist replacing preconditioning hypoxia, read-out: Concentration giving maximal preconditioning effect
Description: Ventricular cells were cultured from chick embryos 14 days in ovo, according to a previously described procedure (20, 27). Cells were plated at a density of 400,000 cells per ml and cultivated in a humidified 5% CO2 -95% air mixture at 37° C. […] For preconditioning studies, the medium was changed to a HEPES-buffered medium containing (mM) 139 NaCl, 4.7 KCl, 0.5 MgCl2, 0.9 CaCl2, 5 HEPES (N-2-hydroxyethylpiperazine-N'-2-ethanesulfonic acid) and 2% fetal bovine serum, pH=7.4, 37° C. before exposing cells to the various conditions at 37° C. Control cells were maintained in the HEPES-buffered media under room air. Hypoxia was produced by placing the cells in a hypoxic incubator (NuAire) where O2 was replaced by N2. The % O2 was monitored by both an oxygen Fyrite Gas Analyzer (Bacharach) and an oxygen analyzer (Model OX630, Engineered Systems & Designs). Preconditioning was induced by exposing the cells to five minutes of hypoxia, termed preconditioning hypoxia, prior to a second ninety-minute hypoxia. Cells not subjected to preconditioning were exposed to ninety minutes of hypoxia only (nonpreconditioned cells). The extracellular pH was similarly maintained at 7.4 by HEPES in both preconditioned and nonpreconditioned cells. Determination of basal level of cell injury was made after parallel incubation of control cells under normal % O2. For preconditioned and nonpreconditioned cells, determination of cell injury was made at the end of the ninety-minute hypoxic period.
The extent of hypoxia-induced injury to the ventricular cell was quantitatively determined by the percentages of cells killed and by the amount of creatine kinase (CK) released into the media. To quantitate the % cells killed, cells were exposed to a trypsin-EDTA Hanks' balanced salt solution for 10 minutes for detachment after the various treatment, followed by centrifugation (300 × g for 10 minutes) and resuspension in culture media for counting in a hemocytometer. Only live cells sedimented and the cells counted represented those that survived (29). None of the sedimented cells subsequently counted included trypan blue. […] There was no protein or CK in the culture media following a second 300 × g centrifugation of resuspended cells previously treated with trypsin-EDTA. […] In contrast, the trypsin-EDTA media from cells exposed to 90 minutes of hypoxia contained substantial amount of proteins (0.15±0.03 mg, n=9) and CK activity (16±3 unit/mg protein, n=8). […] Because trypsin may cause further proteolysis of proteins and CK, the amount of protein and CK retained by the damaged cells in the trypsin-EDTA media may not accurately reflect those associated with the damaged cells. In support of the notion that exposure to 90 minutes of hypoxia caused significant cell injury and loss of membrane integrity, there was also marked release of LDH (hypoxia-exposed cells, 35.5±2.7, unit/mg, n=8, ±S.E. vs. control cells, 6.1±0.4 unit/mg, n=8) and proteins (hypoxia-exposed cells, 0.15±0.03 mg, n=8 vs. control cells, 0.034±0.01 mg, n=8) from the cells incubated under prolonged hypoxia. Thus, the cell viability assay separated out the hypoxia-damaged from the control normoxia-exposed cells. […] The amount of CK was measured as enzyme activity (unit/mg), and increases in CK activity above the control level were determined. The percentage of cells killed was calculated as the number of cells obtained from the control group (representing cells not subjected to any hypoxia or drug treatment) minus the number of cells from the treatment group divided by number of cells in control group multiplied by 100%.
To investigate the role of adenosine in mediating the preconditioning effect, the ventricular cells, instead of being exposed to the brief hypoxia, were incubated with adenosine (10 μM) for 5 minutes prior to the ninety minute hypoxia. In adenosine-treated cells, media were replaced with adenosine-free media for ten minutes prior to a ninety-minute hypoxic exposure. […]

## COc1cc(/C=C/c2nc3c(c(=O)n(C)c(=O)n3C)n2C)cc(OC)c1OCc1ccccc1 [compound 37]
[1]
  A1/A2 ratio (A2a receptor selectivity ratio): 30

## Cn1c(=O)c2c(nc(/C=C/c3cccc(NC(=O)OC(C)(C)C)c3)n2C)n(C)c1=O [compound 25]
[1]
  A1/A2 ratio (A2a receptor selectivity ratio): 30

## C=CCn1c(=O)c2c(nc(/C=C/c3cc(OC)c(OC)c(OC)c3)n2C)n(CC=C)c1=O [compound 46]
[1]
  A1/A2 ratio (A2a receptor selectivity ratio): 13

## COc1cc(/C=C/c2nc3c(c(=O)n(C)c(=O)n3C)n2C)cc(OC)c1OC/C=C/CN [compound 40]
[1]
  A1/A2 ratio (A2a receptor selectivity ratio): 28

## Cn1c(=O)c2c(nc(/C=C/c3cc(F)cc(F)c3)n2C)n(C)c1=O [34b]
[1]
  A1/A2 ratio (A2a receptor selectivity ratio): 230

## COc1cc(/C=C/c2nc3c(c(=O)n(C)c(=O)n3C)n2C)cc(OC)c1O [compound 35]
[1]
  A1/A2 ratio (A2a receptor selectivity ratio): 19

## COC(=O)C1=C(C)NC(C)=C(C(=O)OC)C1c1ccccc1[N+](=O)[O-] [nifedipine]
[2]; nifedipine
  Effect on increase in calcium uptake by isoproterenol, forskolin and BayK 8644: blocked the increase in calcium uptake
[3]
  Ability to replace preconditioning hypoxia (protection against injury by ninety-minute hypoxia; % cells killed, CK released): did not simulate preconditioning
[3]; nifedipine 1 μM during preconditioning hypoxia
  Effect on attenuation of preconditioning by isoproterenol, forskolin and BayK 8644: abolished
[3]; nifedipine 1 μM with CGS21680 during preconditioning hypoxia
  Effect on CGS21680-induced attenuation of preconditioning: abolished the CGS21680-induced attenuation of cardioprotection

## CCCn1c(=O)c2c(nc(/C=C/c3cc(OC)cc(OC)c3)n2C)n(CCC)c1=O [53b]
[1]
  A1/A2 ratio (A2a receptor selectivity ratio): 110

## COc1cc(/C=C/c2nc3c(c(=O)n(C)c(=O)n3C)n2C)cc(OC)c1OC/C=C/CNC(C)=O [compound 41]
[1]
  A1/A2 ratio (A2a receptor selectivity ratio): > 50

## COc1ccc(/C=C/c2nc3c(c(=O)n(C)c(=O)n3C)n2C)cc1 [29b]
[1]
  A1/A2 ratio (A2a receptor selectivity ratio): 44

## CCNC(=O)[C@H]1O[C@@H](n2cnc3c(N)nc(NCCc4ccc(CCC(=O)O)cc4)nc32)[C@H](O)[C@@H]1O [CGS21680, 2-[4-(2-carboxyethyl)phenylethylamino]-5'-N-ethylcarboxiamidoadenosine]
[2]; after 90-second exposure to 45Ca-containing media, CGS21680 1 μM, control 4.2±0.1, ±S.D.
  45Ca uptake: 5.8 ± 0.2 nmol/mg
[2]; after 90-second exposure to 45Ca, CGS21680 1 μM plus nifedipine 1 μM, control 4.2±0.1, ±S.D.
  45Ca uptake, CGS21680 plus nifedipine: 4.4 ± 0.1 nmol/mg
[3]
  Ability to replace preconditioning hypoxia (protection against injury by ninety-minute hypoxia; % cells killed, CK released): could not
  Effect on protection by preconditioning hypoxia (% cells killed, CK released): attenuated the protection

## COc1cc(/C=C/c2nc3c([nH]2)c(=O)n(C)c(=O)n3C)cc(OC)c1 [33a]
[1]
  A1/A2 ratio (A2a receptor selectivity ratio): 25

## Cn1c(=O)c2c(nc(/C=C/c3cccc([N+](=O)[O-])c3)n2C)n(C)c1=O [21b]
[1]
  A1/A2 ratio (A2a receptor selectivity ratio): 11

## COc1ccc(/C=C/c2nc3c(c(=O)n(C)c(=O)n3C)n2C)c(OC)c1OC [43b]
[1]
  A1/A2 ratio (A2a receptor selectivity ratio): 34

## Nc1ncnc2c1ncn2[C@@H]1O[C@H](CO)[C@@H](O)[C@H]1O [Adenosine, adenosine]
[3]
  Ability to replace preconditioning hypoxia (protection against injury by ninety-minute hypoxia; % cells killed, CK released): significant attenuation of the injury

## Cn1c(=O)c2c(nc(/C=C/c3cccc(Cl)c3)n2C)n(C)c1=O [compound 28, 8-(3-chlorostyryl)caffeine]
[3]; CSC present during 5-min treatment with 10 μM R-PIA, P<0.01
  Effect on R-PIA-induced preconditioning (% cells killed, CK released): enhanced the preconditioning effect
[3]
  Ability to replace preconditioning hypoxia (protection against injury by ninety-minute hypoxia; % cells killed, CK released): had no effect on the extent of injury
  Effect on protection by preconditioning hypoxia (% cells killed, CK released): increased protection

## COc1cc(/C=C/c2nc3c(c(=O)n(C)c(=O)n3C)n2C)cc(OC)c1OCCCCN [compound 38]
[1]
  A1/A2 ratio (A2a receptor selectivity ratio): 36

## CNC(=O)[C@H]1O[C@@H](n2cnc3c(NCc4cccc(I)c4)nc(Cl)nc32)[C@H](O)[C@@H]1O [C1-IB-MECA, 2-chloro-N^6-(3-iodobenzyl)adenosine-5'-N-methyluronamide]
[3]
  EC (maximal effect): 0.1 µM
  Ability to replace preconditioning hypoxia (protection against injury by ninety-minute hypoxia; % cells killed, CK released): can replace preconditioning hypoxia and simulate preconditioning

## COc1cc(/C=C/c2nc3c(c(=O)n(C)c(=O)n3C)n2C)cc(OC)c1OC(C)=O [compound 36]
[1]
  A1/A2 ratio (A2a receptor selectivity ratio): 93

## C[C@H](Cc1ccccc1)Nc1ncnc2c1ncn2[C@@H]1O[C@H](CO)[C@@H](O)[C@H]1O [R-PIA, N^6 -R-phenyl-2-propyl adenosine]
[3]
  Ability to replace preconditioning hypoxia (protection against injury by ninety-minute hypoxia; % cells killed, CK released): could substitute for preconditioning hypoxia and induce preconditioning

## CC(=O)Nc1cccc(/C=C/c2nc3c(c(=O)n(C)c(=O)n3C)n2C)c1 [compound 23]
[1]
  A1/A2 ratio (A2a receptor selectivity ratio): 240

## COc1cccc(/C=C/c2nc3c(c(=O)n(C)c(=O)n3C)n2C)c1 [19b]
[1]
  A1/A2 ratio (A2a receptor selectivity ratio): 64

## COc1ccc(/C=C/c2nc3c(c(=O)n(C)c(=O)n3C)n2C)cc1OC [32b]
[1]
  A1/A2 ratio (A2a receptor selectivity ratio): 70

## COc1cc(/C=C/c2nc3c(c(=O)n(C)c(=O)n3C)n2C)cc(OC)c1OC/C=C/CNC(=O)OC(C)(C)C [compound 42]
[1]
  A1/A2 ratio (A2a receptor selectivity ratio): > 40

## COc1cc(/C=C/c2nc3c(c(=O)n(C)c(=O)n3C)n2C)cc(OC)c1 [33b]
[1]
  A1/A2 ratio (A2a receptor selectivity ratio): > 200

## Cn1c(=O)c2c(nc(/C=C/c3cccc(NC(=O)CCC(=O)O)c3)n2C)n(C)c1=O [compound 24]
[1]
  A1/A2 ratio (A2a receptor selectivity ratio): 250

## Cn1c(=O)c2c(nc(/C=C/c3cccc(F)c3)n2C)n(C)c1=O [27b]
[1]
  A1/A2 ratio (A2a receptor selectivity ratio): 190

## COc1cc(/C=C/c2nc3c(c(=O)n(C)c(=O)n3C)n2C)cc(OC)c1OC [44b]
[1]
  A1/A2 ratio (A2a receptor selectivity ratio): 70

## OC[C@H]1O[C@@H](n2cnc3c(NC4CCCC4)nc(Cl)nc32)[C@H](O)[C@@H]1O [CCPA]
[3]
  EC (maximal effect): 0.1 µM
  Ability to replace preconditioning hypoxia (protection against injury by ninety-minute hypoxia; % cells killed, CK released): can replace preconditioning hypoxia and simulate preconditioning

## Cn1c(=O)c2c(nc(/C=C/c3cccc(C(F)(F)F)c3)n2C)n(C)c1=O [20b]
[1]
  A1/A2 ratio (A2a receptor selectivity ratio): 25

## Cn1c(=O)c2c(nc(/C=C/c3cccc(N)c3)n2C)n(C)c1=O [22b]
[1]
  A1/A2 ratio (A2a receptor selectivity ratio): 30

## COc1cc(/C=C/c2nc3c(c(=O)n(C)c(=O)n3C)n2C)cc(OC)c1OCCCCNC(=O)OC(C)(C)C [compound 39]
[1]
  A1/A2 ratio (A2a receptor selectivity ratio): 42

## Cn1c(=O)c2c(nc(/C=C/c3cccc(N(C(=O)OC(C)(C)C)C(=O)OC(C)(C)C)c3)n2C)n(C)c1=O [compound 26]
[1]
  A1/A2 ratio (A2a receptor selectivity ratio): 15

## COc1ccccc1/C=C/c1nc2c(c(=O)n(C)c(=O)n2C)n1C [17b]
[1]
  A1/A2 ratio (A2a receptor selectivity ratio): 18
